Test results as given in patent US5120647A, “Phospholipase A2 inhibitor” (Shionogi & Co., Ltd., priority 1989, dated 1992).
Structures can show the parent of a compound that is named as a salt. Where two headings read alike, the source gives them in different places.

Assays:
PLA2 from Rat Platelet = molecular target: T1, PLA2 from Rat Platelet (Rattus norvegicus, UniProt P14423); assay: PLA2 inhibitory activity (release of free fatty acid from [14C]phosphatidylethanolamine); type: biochemical; details: for IC50: 37° C., 20 minutes, pH 7.4; for PLA2 inhibitory effect (in words): statement in words
T1 construct: PLA2 released from thrombin-stimulated rat platelets; from tissue; host or cells: thrombin-stimulated rat platelets (released enzyme, purified on MD 7.1 antibody-coupled Sepharose)
T1 sequence (P14423 22-146): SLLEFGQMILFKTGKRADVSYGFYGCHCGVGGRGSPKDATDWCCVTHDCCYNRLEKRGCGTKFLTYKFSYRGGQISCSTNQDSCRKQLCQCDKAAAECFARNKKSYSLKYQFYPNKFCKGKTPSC
Protocol: The amount of Cinatrin (μg/ml) effective for inhibiting 50% of PLA2 activity (IC50) was determined.
PLA2 inhibitory activities of Cinatrin and its derivatives were determined according to the following procedure.
PLA2 released from thrombin-stimulated rat platelets was prepared by immuno-affinity chromatography using antibody MD 7.1-coupled Sepharose (Murakami et. al, J. Biochem 104: 884-888, 1988). The standard assay conditions included, 250 μl of Tris-HCl buffer (100 mM, pH 7.4), CaCl2 (3 mM), 40 μM [^14 C]phosphatidylethanolamine and the enzyme. The reaction was started by the addition of the enzyme solution. Following incubation at 37° C. for 20 minutes, the reaction was terminated by addition of 1.25 ml of Dole's reagent (Dole, V. P. & H, Meinerts, J. Biol. Chem. 235: 2595-2599, 1960). Then released free fatty acid was extracted, and counted in Liquiflour (Du Pont-New England Nuclear) to determine the release of the radioactivity. Inhibition activity is expressed as percent of enzyme control.

Solubility = type: physicochemical
[1] = Table 5, methyl ester, read-out: PLA2 Inhibitory Activity, IC50, methyl ester (converted)
[2] = Table 5, lactone, read-out: PLA2 Inhibitory Activity, IC50, lactone (converted)
[3] = Table 5, seco acid (Na), read-out: PLA2 Inhibitory Activity, IC50, seco acid (Na) (converted)

Row | IC50 (PLA2 from Rat Platelet; [1]) [µM] | IC50 (PLA2 from Rat Platelet; [2]) [µM] | Solubility in organic solvents (Solubility) | SMILES | other results
1 | 745 | – | – | CCCCCCCCCCCC(O)C1C(=O)OC(C(=O)OC)C1(O)C(=O)OC (centres unmarked) [Cinatrin C2 methyl ester] | –
2 | – | 801 | soluble | CCCCCCCCCCCC(O)C1C(=O)OC(C(=O)O)C1(O)C(=O)O (centres unmarked) [Cinatrin C2, 3-hydroxy-4-(1-hydroxydodecyl)-5-oxo-tetrahydrofuran-2,3-dicarboxylic acid] | –
3 | 133 | – | – | CCCCCCCCCCCCC1(O)C(=O)OC(C(=O)OC)C1(O)C(=O)OC (centres unmarked) [Cinatrin C3 methyl ester] | –
4 | – | 78.8 | soluble | CCCCCCCCCCCCC1(O)C(=O)OC(C(=O)O)C1(O)C(=O)O (centres unmarked) [Cinatrin C3, 4-dodecyl-3,4-dihydroxy-5-oxo-tetrahydrofuran-2,3-dicarboxylic acid] | PLA2 inhibitory effect (in words) (PLA2 from Rat Platelet): particularly effective

The remaining lines, values behind:

Row | SMILES | IC50 (PLA2 from Rat Platelet; [1]) [µM] | IC50 (PLA2 from Rat Platelet; [2]) [µM] | Solubility in organic solvents (Solubility) | other results
5 | C=CCCCCCCCCC(O)CC(O)(C(=O)O)C(O)(C(=O)O)C(O)C(=O)O (centres unmarked) [Cinatrin A seco acid (Na salt)] | – | – | – | IC50 (PLA2 from Rat Platelet; [3]): 138 µM
6 | CCCCCCCCCCCCC1(C(=O)O)OC(=O)C(O)C1(O)C(=O)O (centres unmarked) [Cinatrin C1, 2-dodecyl-3,4-dihydroxy-5-oxo-tetrahydrofuran-2,3-dicarboxylic acid] | – | > 801 | soluble | IC50 (PLA2 from Rat Platelet; Table 1, lactone form, read-out: IC50, lactone form (Inhibitory Effect on PLA2 from Rat Platelet)): > 801 µM; Change of PLA2 inhibitory activity on conversion of lactone into ester or seco acid form (in words) (PLA2 from Rat Platelet; ester or seco acid form versus lactone form): becomes more active when it is converted into an ester or seco acid form; PLA2 inhibitory effect (in words) (PLA2 from Rat Platelet): moderately active in its lactone form; Solubility in water (Solubility): slightly soluble
7 | CCCCCCCCCCC1CC2(OC(=O)C(O)C2(O)C(=O)OC)C(=O)O1 (centres unmarked) [Cinatrin B methyl ester] | 215 | – | – | –
8 | CCCCCCCCCCCCC1(C(=O)OC)OC(=O)C(O)C1(O)C(=O)OC (centres unmarked) [Cinatrin C1 methyl ester] | 142 | – | – | –
9 | C=CCCCCCCCCC1CC2(OC(=O)C(O)C2(O)C(=O)O)C(=O)O1 (centres unmarked) [Cinatrin A, 8-(dec-9-ene-1-yl)-3,4-dihydroxy-2,6-dioxo-1,7-dioxaspiro [5,5]-nonane-4-carboxylic acid] | – | 316 | soluble | Solubility in water (Solubility): soluble
10 | CCCCCCCCCCC(O)CC(O)(C(=O)O)C(O)(C(=O)O)C(O)C(=O)O (centres unmarked) [Cinatrin B seco acid (Na salt)] | – | – | – | IC50 (PLA2 from Rat Platelet; [3]): 75.7 µM
11 | CCCCCCCCCCCCC(O)(C(=O)O)C(O)(C(=O)O)C(O)C(=O)O (centres unmarked) [Cinatrin C1 seco acid (Na salt)] | – | – | – | IC50 (PLA2 from Rat Platelet; [3]): 70.1 µM
12 | CCCCCCCCCCC1CC2(OC(=O)C(O)C2(O)C(=O)O)C(=O)O1 (centres unmarked) [Cinatrin B, 8-(decane-1-yl)-3,4-dihydroxy-2,6-dioxo-1,7-dioxaspiro[5,5]-nonane-4-carboxylic acid] | – | 147 | soluble | PLA2 inhibitory effect (in words) (PLA2 from Rat Platelet): particularly effective
13 | C=CCCCCCCCCC1CC2(OC(=O)C(O)C2(O)C(=O)OC)C(=O)O1 (centres unmarked) [Cinatrin A methyl ester] | 216 | – | – | –
14 | CCCCCCCCCCCC(O)C(C(=O)O)C(O)(C(=O)O)C(O)C(=O)O (centres unmarked) [Cinatrin C2 seco acid (Na salt)] | – | – | – | IC50 (PLA2 from Rat Platelet; [3]): 44.6 µM
